Patent publication US6855801B1, “Peptides modulating activities of heparin other glycosaminoglycans or proteoglycans” (Thomas Jefferson University, priority 1999, dated 2005)
Where “and” joins values, the source holds several entries; their conditions need not be identical. Identical values can stand only once. Like-named read-outs stand apart in the source and are kept apart here.

Experiments:
Lovenox = experiment: Reversal of anti-Factor Xa activity in vitro (Stachrom Heparin chromogenic assay), Lovenox; format: biochemical, human; settings: for Percent Reversal of anti-Factor Xa Activity, Lovenox: 0.5 U/ml anti-Factor Xa activity
Description: (§1) Solutions of Lovenox, Orgaran, or unfractionated heparin (Sigma) were prepared in 0.32% sodium citrate or in normal human plasma to contain 0.5 U/ml anti-FXa activity. Calibrations were made against the standards provided by the Stachrom Heparin (Diagnostica Stago) assay kit. The heparin/ATIII complex was allowed to form at 37° C. for 2 minutes, peptide was added, the mixture was incubated for an additional 1-5 minutes, and then Factor Xa was added, and finally the color reagent, for one minute, and the absorbance was read at 405 nm. The increase in absorbance from the heparinized control to the test sample was divided by the difference in A405 between the heparinized control and the control without heparin to obtain the % reversal.

Orgaran = experiment: Reversal of anti-Factor Xa activity in vitro (Stachrom Heparin chromogenic assay), Orgaran; format: biochemical, human; settings: for Percent Reversal of anti-Factor Xa Activity, Orgaran: 0.5 U/ml anti-Factor Xa activity
Description: as §1

unfractionated heparin [1] = experiment: Reversal of anti-Factor Xa activity in vitro (Stachrom Heparin chromogenic assay), unfractionated heparin; format: biochemical, human; settings: for Percent Reversal of anti-Factor Xa Activity, Heparin (unfractionated): 0.5 U/ml anti-Factor Xa activity
Description: as §1

unfractionated heparin [2] = experiment: Reversal of anti-thrombin effects of unfractionated heparin in vitro (thrombin clotting time in plasma); format: biochemical, human; settings: heparin 0.5 U/ml; thrombin standardized to clotting time 20-22 seconds
Description: Plasma was obtained from normal donors. Thrombin concentration (human alpha thrombin, Enzyme Research Laboratories, South Bend, Ind.) was standardized to produce a clotting time of 20-22 seconds. Heparin was added at 0.5 IU anti-thrombin activity/ml. The clotting time for heparin alone was approximately 3 minutes. To test the effects of the peptides in this system, one minute after addition of heparin to the plasma, the peptides were added in concentrations ranging from 1-200 μg/ml. After one minute, thrombin was added and the clotting time determined. The effects of the peptides were concentration dependent. The clotting time was restored to normal values in all samples at the dosages shown below in Table III. The ability of the peptides to neutralize heparin inhibition of thrombin clotting time was consistent with the binding affinities shown in Table I, and with the effectiveness against low molecular weight heparin anti-Factor Xa activity in Table II.

HUVEC PGs = experiment: ACE of HUVEC PGs/GAGs through peptide; format: binding, human
Description: (§2) Briefly, peptides were dissolved in 1×ACE running buffer, 50 mM sodium 3-(N-morpholino)-2-hydroxypropanesulfonate (MOPSO, Sigma)/125 mM sodium acetate, pH 7.0, and serially diluted in running buffer at 2× concentrations. Peptides were then mixed 1:1 with 2% agarose/1% CHAPS, 3-[(3-cholamidopropyl)dimethylammonio]-1-propanesulfonate, (Boehringer Mannheim, Indianapolis, Ind.), and loaded into wells of a 1% agarose gel. Radiolabeled heparin or HUVEC PGs were then loaded in a slot on the […] side of the gel, and electrophoresed through the peptide-containing wells, towards the cathode. Gels were dried and PG mobility was measured with a Phosphorimager (Molecular Dynamics, Sunnyvale, Calif.) by scanning each protein lane and determining the relative radioactivity content per. 88-μm pixel through the length of the lane. Retardation coefficient (R) measurements, binding isotherm curve fittings, and apparent Kd value determinations were calculated as detailed previously (Lee, M. K., and A. D. Lander, Proc Nat Acad Sci USA, 88:2768-2772, 1991; San Antonio, J. D., et al, Biochem, 32:47464755, 1993).
Binding analysis of peptides to enzymatically or chemically degraded PGs (see below) was carried out by ACE as detailed, except that PG samples included 6 M urea to denature any residual enzymes.
Cell Culture—HUVEC were isolated as detailed elsewhere (Gimbrone, M. A., In Progress in Hematology and Thrombosis. Vol. III. B. S. Collen, editor. W B Saunders, Philadelphia. 1-28, 1976) and were used up to passage seven. Cells were cultured on 0.2% gelatin-coated tissue culture flasks in normal culture media composed of medium 199 (Gibco BRL, Gaithersburg, Md.), 10% fetal bovine serum (FBS, Mediatech Inc.), 80 μg/ml endothelial cell growth supplement isolated from bovine hypothalami as described (Maciag, T., et al., Proc Nat Acad Sci USA, 76 (11):5674-5678, 1979), 50 μg/ml heparin (porcine intestinal mucosa, grade 1A, Sigma) 1% penicillin-streptomycin, and 0.1% fungizone.
Radiolabeling and Isolation of Total HUVEC PGs and GAGs—Exponentially growing, subconfluent HUVEC were labeled with 35μCi/ml ^35S-Na2SO4 (ICN Pharmaceuticals, Costa Mesa, Calif.) in normal culture media minus heparin for 12 h. Culture media and cell layers were harvested separately. After removal of the media, cells were washed with 2.0 ml PBS plus Ca^2+-Mg^2′. Media and rinses were pooled and brought to 6 M urea, 10 mM EDTA, 1 mM phenymethylsulfonyl fluoride (PMSF), 5 mM N-ethylmaleimide (NEM), 50 mM 6-aminocaproic acid, 5 mM benzamidine, and 1 μg/ml pepstatin A. Samples were stirred for 15 min at room temperature, then centrifuged at 10,000 rpm for 30 min to remove insoluble materials.
To the cell layer was added 2.0 ml of extraction solution, 6M urea, 100 mM NaCl, 0.2% Triton X-100, 50 mM Tris-HCl, pH 7.0, and protease inhibitors as described above. Cells were scraped off the dishes, and the extracts were pooled and stirred for 5 min at room temperature, and then centrifuged as described above.
Samples were concentrated on DEAE columns (DEAE Bio-Gel A Agarose, Bio-Rad Laboratories) equilibrated with low salt buffer, 0.1 M NaCl, 6 M urea, and 50 mM Tris-HCl, pH 7.0. Columns were rinsed with 10 ml of low salt buffer; flow through was discarded. Bound PGs/GAGs were eluted with 3 ml of high salt buffer, 1.5 M NaCl, 6 M urea, and 50 mM Tris-HCl, pH 7.0. Eluted samples were dialyzed against distilled water, lyophilized and stored at −20° C. until binding analysis.
Enzymatic Digestions of PGs—The contributions of PG GAG chain components to peptide binding affinities were assessed by selective enzymatic degradation of GAG chains prior to ACE analysis. ^35S-Na2SO4 labeled HUVEC PGs were digested with chondroitinase ABC, or heparatinase I (Seikagaku America, Ijamsville, Md.). […]

[3] = Affinity coelectrophoresis (ACE) of radiolabeled heparin through peptides; format: binding, pig; settings: for heparin-binding affinity in words: ACE, low Mr heparin
Text: Preparation of Radiolabeled Heparin—Whole heparin from pig intestinal mucosa (Sigma) was tyramine end-labeled and radiolabeled with Na^125I (Amersham, Pharmacia Biotech, Inc., Piscataway, N.J.) to an average specific activity ≅1.0×10^7 CPM/μg as described^59. Radiolabeled heparin was fractionated on Sephadex G-100 (Bio-Rad Laboratories, Hercules, Calif.) and the final ≅12% of material to elute was retained as the low Mr material of ≦6,000 (Jordan, R., D. Beeler, and R. Rosenberg, J Biol Chem, 254:2902-2913, 1979; Laurent, T. C., et al., Biochem J, 175:691-701, 1978).
as §2
Some peptides were also analyzed by ACE for heparin-binding under reducing conditions. Thus, after serial peptide dilution, β-mercaptoethanol (β-ME) was added at 5% to each peptide sample, and these were mixed 1:1 with 2% agarose/1% CHAPS/5% β-ME, and added to the ACE gel sample wells as usual.

Row | Substance | Percent Reversal of anti-Factor Xa Activity, Lovenox (Lovenox; peptide 0.6 mg/ml in plasma) [%] | Percent Reversal of anti-Factor Xa Activity, Orgaran (Orgaran; peptide 0.6 mg/ml in plasma) [%] | Percent Reversal of anti-Factor Xa Activity, Heparin (unfractionated) (unfractionated heparin [1]; peptide 0.6 mg/ml in plasma) [%] | heparin-binding affinity in words [3] | further results
1 | (AKAAKKRA)3 (AKAAKKRAAKAAKKRAAKAAKKRA; protein fragment) [XBBBXXBX tandem repeat peptide, reversed orientation] | 93.5 | 72.0 | 94.0 |  | μg peptide/ml heparinized plasma needed to normalize thrombin time (unfractionated heparin [2]): >50 μg peptide/ml heparinized plasma
2 | (ARKKAAKA)4 (ARKKAAKAARKKAAKAARKKAAKAARKKAAKA; protein fragment) [XBBBXXBX tandem repeat peptide] | 73 | 70.5 | 87.5 |  | Kd (HUVEC PGs; 35S-labeled secreted/total EC PGs, read-out: Kd for total (secreted) HUVEC PGs): ~0.3 µM; Kd for HUVEC PGs devoid of CS GAGs via chondroitinase ABC (ABC) digestion (HUVEC PGs; chondroitinase ABC digested PGs): comparable affinity; Kd (HUVEC PGs; chondroitinase ABC digested PGs, read-out: Kd for HUVEC PGs devoid of CS GAGs via chondroitinase ABC (ABC) digestion): ~0.3 µM; Kd (HUVEC PGs; free GAG chains of total PGs, read-out: Kd for GAG chains liberated from core protein by borohydride reduction (BH)): ~1.2 µM; reduction in affinity after borohydride release of GAG chains (HUVEC PGs; free GAG chains versus intact PGs): 3 fold and 3-4 fold; Kd for HUVEC PGs devoid of HS GAGs via heparatinase I digestion (H) (HUVEC PGs; heparatinase I digested PGs): comparable affinity; Kd (HUVEC PGs; heparatinase I digested PGs, read-out: Kd for HUVEC PGs devoid of HS GAGs via heparatinase I digestion (H)): ~0.3 µM; Kd for HUVEC PGs devoid of HS GAGs via nitrous acid treatment (NA) (HUVEC PGs; nitrous acid degraded PGs): comparable affinity; Kd (HUVEC PGs; nitrous acid degraded PGs, read-out: Kd for HUVEC PGs devoid of HS GAGs via nitrous acid treatment (NA)): ~0.3 µM
3 | (ARKKAAKA)5 (ARKKAAKAARKKAAKAARKKAAKAARKKAAKAARKKAAKA; protein fragment) [XBBBXXBX tandem repeat peptide] | 81.5 | 83.0 | 94.5 |  | Percent Reversal of anti-Factor Xa Activity, Lovenox (Lovenox; peptide 0.12 mg/ml in plasma): 68.5%; Percent Reversal of anti-Factor Xa Activity, Lovenox (Lovenox; peptide 0.4 mg/ml in plasma): 71.0%; Percent Reversal of anti-Factor Xa Activity, Orgaran (Orgaran; peptide 0.12 mg/ml in plasma): 75.0%; Percent Reversal of anti-Factor Xa Activity, Orgaran (Orgaran; peptide 0.4 mg/ml in plasma): 75.0%; Percent Reversal of anti-Factor Xa Activity, Heparin (unfractionated) (unfractionated heparin [1]; peptide 0.12 mg/ml in plasma): 64.5%; Percent Reversal of anti-Factor Xa Activity, Heparin (unfractionated) (unfractionated heparin [1]; peptide 0.4 mg/ml in plasma): 93.0%; μg peptide/ml heparinized plasma needed to normalize thrombin time (unfractionated heparin [2]): 21 μg peptide/ml heparinized plasma
4 | (ARKKPAKA)3 (ARKKPAKAARKKPAKAARKKPAKA; protein fragment) [proline in each tandem repeat in place of an alanine] | 100 | 66.5 | 99.0 |  | Percent Reversal of anti-Factor Xa Activity, Lovenox (Lovenox; peptide 0.12 mg/ml in plasma): 62.0%; Percent Reversal of anti-Factor Xa Activity, Lovenox (Lovenox; peptide 0.4 mg/ml in plasma): 62.5%; Percent Reversal of anti-Factor Xa Activity, Orgaran (Orgaran; peptide 0.12 mg/ml in plasma): 45.0%; Percent Reversal of anti-Factor Xa Activity, Orgaran (Orgaran; peptide 0.4 mg/ml in plasma): 67.5%; Percent Reversal of anti-Factor Xa Activity, Heparin (unfractionated) (unfractionated heparin [1]; peptide 0.12 mg/ml in plasma): 90.0%; Percent Reversal of anti-Factor Xa Activity, Heparin (unfractionated) (unfractionated heparin [1]; peptide 0.4 mg/ml in plasma): 50.0%
5 | (ARRRAARA)3 [XBBBXXBX tandem repeat peptide] | 67.5 | 67.0 | 57.5 |  | 
6 | AAARRARAAAARAKA |  |  |  |  | decrease in heparin-binding affinity versus native mouse SG peptide ([3]; modified sequence versus YPARRARYQWVRCKP): 350 fold
7 | AKKARA |  |  |  | do not bind heparin with a measurable affinity | 
8 | AKKARAAKKARAAKKARAAKKARAAKKARA [(AKKARA)5, XBBXBX tandem repeat peptide] |  |  |  | strong | 
9 | ARKKAAKA |  |  |  | do not bind heparin with a measurable affinity | 
10 | ARKKAAKAARKKPAKAARKKAAKA | 83.0 | 67.0 | 57.5 |  | 
11 | YPARRARYQWVRAKP [murine serglycin, cysteine replaced with alanine] | 0 | 2.0 | 25.0 | negligible | 
12 | YPTQRARYQWVRCNP | 0 | 5 | 90 |  | effectiveness against Lovenox / low molecular weight heparin in vitro, in words (Lovenox; text summary of Table II): not against Lovenox; effectiveness against Orgaran in vitro, in words (Orgaran; text summary of Table II): highly effective; effectiveness against UFH / heparin in vitro, in words (unfractionated heparin [1]; text summary of Table II): highly effective; μg peptide/ml heparinized plasma needed to normalize thrombin time (unfractionated heparin [2]): 100 μg peptide/ml heparinized plasma
